# Measured values reported in patent publication US20160279069A1, “MATERIALS AND METHODS FOR SUSTAINED RELEASE OF ACTIVE COMPOUNDS” (The Florida International University Board of Trustees, priority 2015, published 2016).
# Columns and labels:
# human astrocytes (HAs) = tested on: human astrocytes (HAs)
# Description: In vitro cytotoxicity was assessed by MTT cell viability assay, using a CellTiter 96 Aqueous one-solution cell proliferation assay kit (catalog G3580; Promega, USA) (Nair, M. et al., Nat Commun. 2013; 4:1707). HAs were seeded in 96-well tissue plates at a density of 5×10^3 cells per well. […] Finally, approximately 100 μL stop solution (about 20% sodium dodecyl sulfate in about 50% dimethyl formamide) was added into each well, and absorbance was recorded at 550 nm by a microplate reader (Synergy HT; BioTek Instruments, Inc.).
# [1] = tested on: HIV-1Ba-L infected primary human astrocytes (HA); test: p24 antigen ELISA in HIV-infected primary human astrocytes (latency breaking and antiviral efficacy); assay type: cell-based; details: tested about 1 to about 10 μM, solution phase
# Description: FIG. 11 represents an evaluation of the antiviral efficacy of an exemplary embodiment of the drug delivery system in suppressing p24 antigen levels in HIV-infected human astrocytes. The drug delivery system was added on the second day after HIV infection (HIV-1BaL) in equimolar concentration. Supernatants were evaluated on the third, fifth, and seventh day postinfection for p24 levels and were checked for its efficacy, along with its percentage cell viability, using MTT assay. […] Viral p24 protein in the culture supernatant was measured by enzyme-linked immunosorbent assay. Error bars indicate the standard deviation of triplicate data points and are representative of at least three experiments. Dotted lines represent the percentage cell viability; each point represents treatment period. […] NS=non-significant. MTT=3-(4,5-dimethylthiazol-2-yl)-2,5-diphenyltetrazolium bromide.
# Latency-breaking and antiviral efficacy of the formulation was determined via quantification of p24 antigen in a primary human astrocytes (HA) infection model (Nair, M. et al., Nat Commun. 2013; 4:1707). […] The sustained-release ability of the finally assembled formulation ([MNP+tenofovir]2+vorinostat) was also evaluated over a treatment period of 5 days in the HA model. […]
smiles,measurement,setting,value
O=C(CCCCCCC(=O)Nc1ccccc1)NO [vorinostat],cytotoxicity of optimized vorinostat dose,human astrocytes (HAs),nontoxic
same,vorinostat concentration giving maximum p24 value (latency reversal),[1],1 µM
